The values below come from ChEMBL document CHEMBL4651402, “Screening of ~5500 FDA-approved drugs and clinical candidates for anti-SARS-CoV-2 activity” (2021).

Each structure is given as a SMILES string.

One assay concerns SARS-CoV-2. The assay can be described thus: microbe, parasite or virus in culture. The note with it: Severe acute respiratory syndrome coronavirus 2, Vero C1008, 48 h.
Take `C[C@@H]1CC[C@H]2[C@@H](C)C(=O)O[C@@H]3O[C@@]4(C)CC[C@@H]1[C@]32OO4` [ARTEMISININ]: the IC50 is greater than 20 µM.
For the molecule `COc1ccc2c(c1OC)C(=O)O[C@@H]2[C@H]1c2cc3c(cc2CCN1C)OCO3` [HYDRASTINE], the IC50 was greater than 20 µM.
The molecule `CCN(CC)C(=O)N[C@@H]1CC2c3cccc4[nH]cc(c34)CC2N(C)C1` (some centres not stated) registered an IC50 greater than 20 µM.
Still for that read-out and setting: with `CN1[C@@H]2CC[C@H]1CC(NC(=O)n1c(=O)[nH]c3ccccc31)C2` (some centres not stated) the figure was greater than 20 µM; with `Cc1nnc(C(=O)NC(C)(C)c2nc(C(=O)NCc3ccc(F)cc3)c(O)c(=O)n2C)o1`, greater than 20 µM; with `Cc1cc(C(=O)NCCc2ccc(S(=O)(=O)NC(=O)NN3CCCCCC3)cc2)no1` [GLISOXEPIDE], greater than 20 µM.
Molecule `COc1ccc(COc2cc3oc(=O)c4cc(C(C)O)ccc4c3cc2OC)cc1` (configuration not stated) [PALOMID-529] came in with an IC50 greater than 20 µM.
On the same count and under the same terms, the figure for `COc1ccc(CCN(C)CCCC(C#N)(c2cc(OC)c(OC)c(OC)c2)C(C)C)cc1OC` (configuration not stated) [GALLOPAMIL] is greater than 20 µM; for `Nc1ccn([C@H]2CC[C@@H](CO)O2)c(=O)n1` [ZALCITABINE] it is greater than 20 µM; for `O=C1CCc2cc(OCCCCc3nnnn3C3CCCCC3)ccc2N1` [CILOSTAZOL] it is greater than 20 µM.
The same measure, in the same setting: with `C=C1[C@@H](C)[C@H]2[C@H](Cc3ccccc3)NC(=O)[C@]23OC(=O)/C=C\[C@H](O)CCC[C@@H](C)C/C=C\[C@H]3[C@@H]1O` the figure was greater than 20 µM.
In the case of `CC(=O)OC1CCC2(C)C3CCC4(C)C(CC5OC6(CCC(C)CO6)C(C)C54)C3CC[C@H]2C1` (some centres not stated), the IC50 was greater than 20 µM.
The same measure, in the same setting: with `CC(CCC(=O)O)C1CCC2C3CC[C@@H]4C[C@H](O)CC[C@]4(C)C3C[C@H](O)[C@]12C` (some centres not stated) the figure was greater than 20 µM; with `COc1ccc(N2CCN(c3cccc(C)c3)CC2)nn1`, greater than 20 µM.
The same measure, in the same setting: with `O=C(Nc1ccc(O)cc1)c1ccccc1O` [OSALMID] the figure was greater than 20 µM.
Still for that read-out and setting: the figure for `CCCCCCCCCCCCCCCC(=O)OCC(O)CO` (configuration not stated) [GLYCEROL MONOPALMITATE] is greater than 20 µM; for `CC(=O)N1CCC(=C2c3ccc(Cl)cc3CCc3cccnc32)CC1` [SCH-37370] it is greater than 20 µM.
`CCCC(=O)OCOC(=O)C(C)(C)C` [AN-9] displayed an IC50 greater than 20 µM.
On the same count and under the same terms, the figure for `NC(=O)c1ncn([C@@H]2O[C@H](CO)[C@@H](O)[C@H]2O)c1N` [ACADESINE] is greater than 20 µM.
Same read-out and setting: with `O=C(O)Cc1ccccc1` [PHENYLACETIC ACID] the figure was greater than 20 µM.
The same measure, in the same setting: with `Nc1nc(N)nc(-c2cc(Cl)ccc2Cl)n1` [IRSOGLADINE] the figure was greater than 20 µM.
As to `[2H]C([2H])(CCCCCCCC)C([2H])([2H])CCCCCC(=O)OC1CCCn2c1nc(C)c(CCN1CCC(c3noc4cc(F)ccc34)CC1)c2=O` (configuration not stated), the IC50 was greater than 20 µM.
Same read-out and setting: the figure for `O=C1c2ccccc2C(=O)c2c1ccc(O)c2O` [ATHRAQUINONES A] is greater than 20 µM.
`Cc1ccccc1C(OCCN(C)C)c1ccccc1` (configuration not stated) [ORPHENADRINE] gave an IC50 greater than 20 µM.
Same read-out and setting: the figure for `O=C(O)CP(=O)(O)O` [FOSFONET] is greater than 20 µM; for `CCN(CC)CC(=O)Nc1c(C)cccc1C` [LIDOCAINE] it is greater than 20 µM; for `CCCN(CC)C(CC)C(=O)Nc1c(C)cccc1C` (configuration not stated) [ETIDOCAINE] it is greater than 20 µM.
On the same count and under the same terms, with `CO[C@@]12CC[C@@]3(C[C@@H]1[C@](C)(O)C(C)(C)C)[C@H]1Cc4ccc(O)c5c4[C@@]3(CCN1CC1CC1)[C@H]2O5` [BUPRENORPHINE] the figure was greater than 20 µM; with `N[C@@H](C(=O)O)[C@@H](O)[C@H](O)[C@H](O)CO` [GLUCOSAMINIC ACID], greater than 20 µM; with `CCC(CCC(C)C1CCC2C3CC=C4CC(OC(C)=O)CCC4(C)C3CCC12C)C(C)C` (configuration not stated), greater than 20 µM.
The same measure, in the same setting: with `CCCCC1C(=O)N(c2ccccc2)N(c2ccc(O)cc2)C1=O` (configuration not stated) [OXYPHENBUTAZONE ANHYDROUS] the figure was greater than 20 µM.

Staying with this assay, now noted: Severe acute respiratory syndrome coronavirus 2, Vero C1008, 48 h, read-out: pIC50 (converted).
For `C[C@@H]1CC[C@H]2[C@@H](C)C(=O)O[C@@H]3O[C@@]4(C)CC[C@@H]1[C@]32OO4` [ARTEMISININ], the IC50 is greater than 20 µM.
Turning to `COc1ccc2c(c1OC)C(=O)O[C@@H]2[C@H]1c2cc3c(cc2CCN1C)OCO3` [HYDRASTINE], the IC50 was greater than 20 µM.
The same measure, in the same setting: the figure for `CCN(CC)C(=O)N[C@@H]1CC2c3cccc4[nH]cc(c34)CC2N(C)C1` (some centres not stated) is greater than 20 µM; for `CN1[C@@H]2CC[C@H]1CC(NC(=O)n1c(=O)[nH]c3ccccc31)C2` (some centres not stated) it is greater than 20 µM.
On the same count and under the same terms, with `Cc1nnc(C(=O)NC(C)(C)c2nc(C(=O)NCc3ccc(F)cc3)c(O)c(=O)n2C)o1` the figure was greater than 20 µM.
Same read-out and setting: the figure for `Cc1cc(C(=O)NCCc2ccc(S(=O)(=O)NC(=O)NN3CCCCCC3)cc2)no1` [GLISOXEPIDE] is greater than 20 µM; for `COc1ccc(COc2cc3oc(=O)c4cc(C(C)O)ccc4c3cc2OC)cc1` (configuration not stated) [PALOMID-529] it is greater than 20 µM; for `COc1ccc(CCN(C)CCCC(C#N)(c2cc(OC)c(OC)c(OC)c2)C(C)C)cc1OC` (configuration not stated) [GALLOPAMIL] it is greater than 20 µM.
For the molecule `Nc1ccn([C@H]2CC[C@@H](CO)O2)c(=O)n1` [ZALCITABINE], the IC50 was greater than 20 µM.
Still for that read-out and setting: with `O=C1CCc2cc(OCCCCc3nnnn3C3CCCCC3)ccc2N1` [CILOSTAZOL] the figure was greater than 20 µM; with `C=C1[C@@H](C)[C@H]2[C@H](Cc3ccccc3)NC(=O)[C@]23OC(=O)/C=C\[C@H](O)CCC[C@@H](C)C/C=C\[C@H]3[C@@H]1O`, greater than 20 µM; with `CC(=O)OC1CCC2(C)C3CCC4(C)C(CC5OC6(CCC(C)CO6)C(C)C54)C3CC[C@H]2C1` (some centres not stated), greater than 20 µM.
Same read-out and setting: with `CC(CCC(=O)O)C1CCC2C3CC[C@@H]4C[C@H](O)CC[C@]4(C)C3C[C@H](O)[C@]12C` (some centres not stated) the figure was greater than 20 µM; with `COc1ccc(N2CCN(c3cccc(C)c3)CC2)nn1`, greater than 20 µM; with `O=C(Nc1ccc(O)cc1)c1ccccc1O` [OSALMID], greater than 20 µM.
Same read-out and setting: with `CCCCCCCCCCCCCCCC(=O)OCC(O)CO` (configuration not stated) [GLYCEROL MONOPALMITATE] the figure was greater than 20 µM; with `CC(=O)N1CCC(=C2c3ccc(Cl)cc3CCc3cccnc32)CC1` [SCH-37370], greater than 20 µM.
With `CCCC(=O)OCOC(=O)C(C)(C)C` [AN-9], the IC50 is greater than 20 µM.
With `NC(=O)c1ncn([C@@H]2O[C@H](CO)[C@@H](O)[C@H]2O)c1N` [ACADESINE], the IC50 was greater than 20 µM.
On the same count and under the same terms, the figure for `O=C(O)Cc1ccccc1` [PHENYLACETIC ACID] is greater than 20 µM; for `Nc1nc(N)nc(-c2cc(Cl)ccc2Cl)n1` [IRSOGLADINE] it is greater than 20 µM; for `[2H]C([2H])(CCCCCCCC)C([2H])([2H])CCCCCC(=O)OC1CCCn2c1nc(C)c(CCN1CCC(c3noc4cc(F)ccc34)CC1)c2=O` (configuration not stated) it is greater than 20 µM.
Same read-out and setting: the figure for `O=C1c2ccccc2C(=O)c2c1ccc(O)c2O` [ATHRAQUINONES A] is greater than 20 µM.
Same read-out and setting: the figure for `Cc1ccccc1C(OCCN(C)C)c1ccccc1` (configuration not stated) [ORPHENADRINE] is greater than 20 µM.
As to `O=C(O)CP(=O)(O)O` [FOSFONET], the IC50 is greater than 20 µM.
Still for that read-out and setting: with `CCN(CC)CC(=O)Nc1c(C)cccc1C` [LIDOCAINE] the figure was greater than 20 µM; with `CCCN(CC)C(CC)C(=O)Nc1c(C)cccc1C` (configuration not stated) [ETIDOCAINE], greater than 20 µM.
On the same count and under the same terms, the figure for `CO[C@@]12CC[C@@]3(C[C@@H]1[C@](C)(O)C(C)(C)C)[C@H]1Cc4ccc(O)c5c4[C@@]3(CCN1CC1CC1)[C@H]2O5` [BUPRENORPHINE] is greater than 20 µM.
Regarding `N[C@@H](C(=O)O)[C@@H](O)[C@H](O)[C@H](O)CO` [GLUCOSAMINIC ACID], the IC50 was greater than 20 µM.
As for `CCC(CCC(C)C1CCC2C3CC=C4CC(OC(C)=O)CCC4(C)C3CCC12C)C(C)C` (configuration not stated), the IC50 was greater than 20 µM.
Same read-out and setting: the figure for `CCCCC1C(=O)N(c2ccccc2)N(c2ccc(O)cc2)C1=O` (configuration not stated) [OXYPHENBUTAZONE ANHYDROUS] is greater than 20 µM.
